One compound from patent US8546338B2, “Self-assembling hydrogels based on dicephalic peptide amphiphiles” (Johnson & Johnson Consumer Companies, Inc., priority 2010, dated 2013) can be followed below.

Data set [1] relates to human umbilical cord cells (hUTCs). Nature of the data set: Cell viability of encapsulated hUTCs in DPA gels (Live/Dead). The conditions noted are these: 2 wt % gel, 100,000 cells, after 1, 2 and 3 weeks. It counts as cell-based. As for the experimental part: The viability and proliferation of cells in the gels was evaluated by encapsulating human umbilical cord cells (hUTCs) in the gels. hUTCs were isolated as described in U.S. Pat. No. 7,510,873. Cells were thawed from storage and cultured for four days in Hayflick media. After four days, the cells were trypsinized and counted by the Guava ViaCount methodology (Millipore, Billerica, Mass.). Cells were re-suspended in Hayflick media at a density of 1,000,000 cells/ml. Encapsulation of the cells in the gels was achieved by adding 100 μl cell suspension to 100 μl of a 4 wt % DPA solution in ultrapure in a 24 well plate, resulting in a final DPA concentration of 2%. The gels were incubated for 1 h at 37° C., 5% CO2 after which 1000 μl media was added on top of the gel. Cells were incubated at 37° C., 5% CO2. Every 3-4 days of culture, 500 μl media was replaced.
After mixing of the cell suspension and 4% DPA solution by pipetting up and down, the protocol described above was modified by adding 10 μl 100 mg/ml calcium chloride solution upon which gelation occurred. Final concentrations are 2% in DPA and 100,000 cells. Control gels without cells were prepared by using pure media and additional cell only and cells with calcium chloride controls were prepared as standard 2D culture. After 7 days of culture, the gels were assayed with Live/Dead assay for cell viability and Invitrogen CyQuant GR assay for cell proliferation (Invitrogen, Carlsbad, Calif.). The Live/Dead was performed as described in the provided protocol but at half the […] concentration to reduce non-specific fluorescence due to dye absorption. […] The cells in the gels contained a lot of viable cells (FIG. 410). No dead cells could be observed in the gels. Therefore, the viability of these cells in the gels is very high (>95%).
In a second experiment, 100,000 hUTC cells were encapsulated in 2 wt % Gly-Phe-Gly-Phe-Gly-Phe-Gly-Gln-Gln-Ser (SEQ ID NO: 8) DPA gels. The cells were cultured for 3 weeks and cells were assessed after 1, 2 and 3 weeks with Live/Dead.

Data set [2] can be described thus: Oscillating rheology, time sweep (kinetics of formation). The data set is classed as physicochemical. The conditions noted are these: 2 wt % gels in DMEM. On the procedure:
Oscillating rheology by the parallel plates method (radius=25 mm) was performed on 400 μl gels to assess the mechanical strengths of gels. Time sweeps were performed to evaluate kinetics of formation at a constant strain rate of 1% and frequency of 1 rad/s. Strain sweeps were performed ranging from 1-100% strain in increments of 2% at a constant frequency of 1 rad/s. Cross-over of G′ and G″ was used to determine the gel point and point of breakdown. Time sweeps were initiated immediately after mixing the solutions that lead to DPA hydrogel formation. In the strain sweeps, the gels were allowed to form on the plate for 30 minutes before the measurement is initiated.
The gelation process was initiated on the plate at 25° C. by the addition of 10 μl of 100 mg/ml calcium chloride solution to a solution of the DPA in DMEM.

Turning to `CCCCCCCCCCCCCCCC(=O)NC(C(=O)NCC(=O)N[C@@H](Cc1ccccc1)C(=O)NCC(=O)N[C@@H](Cc1ccccc1)C(=O)NCC(=O)N[C@@H](Cc1ccccc1)C(=O)NCC(=O)N[C@@H](CCC(N)=O)C(=O)N[C@@H](CCC(N)=O)C(=O)N[C@@H](CO)C(=O)O)C(=O)NCC(=O)N[C@@H](Cc1ccccc1)C(=O)NCC(=O)N[C@@H](Cc1ccccc1)C(=O)NCC(=O)N[C@@H](Cc1ccccc1)C(=O)NCC(=O)N[C@@H](CCC(N)=O)C(=O)N[C@@H](CCC(N)=O)C(=O)N[C@@H](CO)C(=O)O` [Gly-Phe-Gly-Phe-Gly-Phe-Gly-Gln-Gln-Ser], the “Viability of hUTC cells, Live/Dead” value in data set [1] was “very limited numbers of dead cells were detected”. For the same compound, in data set [2], the “Gel point after mixing” value was determined as 74 s.
